Assay results from patent US10188650B2, “Treatment of neurological disorders” (THE REGENTS OF THE UNIVERSITY OF MICHIGAN, priority 2014, dated 2019).
“Also recorded” adds a separate entry of the source.

Experiments:
[1] = pediatric patient studies; cited from earlier work
[2] = molecular target: P-glycoprotein (Homo sapiens, UniProt P08183); conditions: cited from earlier work
[3] = test system: C4da neurons overexpressing Dscam; experiment: Axon terminal overgrowth induced by Dscam overexpression in single C4da neurons (MARCM), larvae fed drug; type: in vivo, Drosophila; conditions: larvae reared in food containing 380 μM nilotinib (figure legend: 0.4 mM), 4 days
Source text: The genetic technique MARCM was used to express the Dscam transgene in single C4da neurons and to label the morphology of the axon terminals.
The MARCM technique was used to generate and label C4da neurons homozygous for abl^1 or abl^4 mutations and C4da neurons overexpressing Dscam[TM2]:GFP.
Antibodies used include chicken anti-GFP (Ayes) and rabbit anti-RFP (Rockland). Samples were dehydrated and mounted with DPX mounting media (Electron Microscopy Sciences). Confocal imaging was completed with a Leica SP5 confocal system equipped with a resonant scanner and 63× oil-immersion lens (NA=1.40).
(§1) Sample preparation, imaging, and quantification were then completed as described above.
In particular, the genetic mosaic analysis MARCM was used to express the Dscam transgene in single C4da neurons and to label the morphology of the axon terminals. […] Expression of Dscam transgene was achieved by the C4da-specific driver ppk-Gal4 and UAS-Dscam::GFP transgenes. […] Dscam expression levels (GFP intensity) were measured from the C4da neuron cell body.

[4] = test system: dFMRP mutant C4da neurons; experiment: Axon terminal overgrowth in dFMRP mutants (Fragile X Syndrome model), larvae fed drug; type: in vivo, Drosophila; conditions: larvae raised with nilotinib 4 days; vehicle-fed mutants 130%
Source text: The MARCM technique was used to generate and visualize single axon terminals of mutant C4da neurons. […] FIG. 10c summarizes the data from FIG. 6, FIG. 10A and FIG. 10B relating to quantification of the axon terminal length of the indicated genotype and drug treatment. […] Scale bar is 10 μm. Two-way Student's t-test was used for statistical analysis. *: p<0.05; **: p<0.01; ***: p<0.001; ****; p<0.0001.
The MARCM technique was used to generate and label C4da neurons homozygous for abl^1 or abl^4 mutations and C4da neurons overexpressing Dscam[TM2]:GFP. MARCM clones were induced as previously described in Ye et al. (2011) Journal of Neuroscience 31: 3309-3319. Confocal images were collected and analyzed as described in Kim et al. (2013) Neuron 78: 827-838. The MARCM technique was used to visualize single neurons homozygous for abl^1, abl^4, or dFMRP^Δ50 and overexpressing Dscam[3.36.25.2]:GFP as previously described (Kim, et al., 2013).
as §1
Fragile X Syndrome (FXS) is caused by an absence of Fragile X mental retardation protein (FMRP) (Kremer, et al. (1991) Science 252: 1711-14), and is modeled in Drosophila using loss-of-function mutants for the Drosophila homolog of […], dFMRP (Zhang, et al. (2001) Cell 107:591-603; Dockendorff, et al. (2002) Neuron 34: 973-84).

[5] = Human pharmacokinetics; type: in vivo; conditions: estimated
[6] = molecular target: T1, Drosophila Abl (Drosophila melanogaster, UniProt P00522); experiment: Abl activity in Schneider 2 cells expressing Drosophila Abl, western blot with anti-phospho-Y412-Abl antibody; type: cell-based; conditions: nilotinib 5 μM, 6 hours, S2 cells expressing Drosophila Abl
T1 construct: the full-length cDNA of Drosophila Abl was obtained by ligating two fragments; Myc; expressed in transfected cells; host or cells: Drosophila Schneider 2 (S2) cells
Method: Abl activity was assessed by western blotting analysis with an anti-phospho-Y412-Abl antibody.
Drosophila Schneider 2 cells were maintained in Drosophila Schneider's medium (Life Technologies) supplemented with 10% fetal bovine serum (Sigma-Aldrich, St. Louis, Mo.) in a humidified atmosphere at 26° C. Cells grown on tissue culture plates were transfected with Lipofectamine 2000 (Life Technologies) according to manufacturer's recommendation. Cells were harvested two days after transfection, lysed in SDS sample buffer, and subjected to western blot analysis. In some experiments, cells were transfected with indicated DNA constructs together with tubulin-Gal4 (Lee and Luo, 2001) by using Lipofectamine 2000 (Invitrogen) according to manufacturer's protocol.
Western blot analysis was performed as follows.
as §1
During the development of embodiments of the technology provided herein, experiments were performed to assess the effects of Abl kinase inhibitors on Dscam-induced axonal overgrowth. […] Abl activity was assessed by western blotting analysis with an anti-phospho-Y412-Abl antibody.

[7] = molecular target: T2, OCT1 (Homo sapiens, UniProt O15245); conditions: entry into cell cytoplasm; cited from earlier work
T2 sequence (O15245 1-554): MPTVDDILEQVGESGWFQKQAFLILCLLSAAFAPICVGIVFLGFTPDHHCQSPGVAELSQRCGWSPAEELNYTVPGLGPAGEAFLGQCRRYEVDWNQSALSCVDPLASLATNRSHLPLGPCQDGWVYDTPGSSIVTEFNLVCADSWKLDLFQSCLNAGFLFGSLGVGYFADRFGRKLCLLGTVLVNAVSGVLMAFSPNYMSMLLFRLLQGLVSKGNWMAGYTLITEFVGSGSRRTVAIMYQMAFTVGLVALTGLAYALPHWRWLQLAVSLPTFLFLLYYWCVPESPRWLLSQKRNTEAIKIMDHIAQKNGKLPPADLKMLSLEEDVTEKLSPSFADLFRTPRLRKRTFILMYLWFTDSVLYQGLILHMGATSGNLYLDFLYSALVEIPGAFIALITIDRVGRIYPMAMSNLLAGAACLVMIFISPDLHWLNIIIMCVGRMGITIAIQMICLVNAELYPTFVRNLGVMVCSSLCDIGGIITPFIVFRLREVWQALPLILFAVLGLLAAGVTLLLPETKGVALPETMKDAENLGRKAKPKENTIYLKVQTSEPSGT

[8] = human, oral capsule; cited from earlier work

Sequence of P-glycoprotein (P08183 whole entry): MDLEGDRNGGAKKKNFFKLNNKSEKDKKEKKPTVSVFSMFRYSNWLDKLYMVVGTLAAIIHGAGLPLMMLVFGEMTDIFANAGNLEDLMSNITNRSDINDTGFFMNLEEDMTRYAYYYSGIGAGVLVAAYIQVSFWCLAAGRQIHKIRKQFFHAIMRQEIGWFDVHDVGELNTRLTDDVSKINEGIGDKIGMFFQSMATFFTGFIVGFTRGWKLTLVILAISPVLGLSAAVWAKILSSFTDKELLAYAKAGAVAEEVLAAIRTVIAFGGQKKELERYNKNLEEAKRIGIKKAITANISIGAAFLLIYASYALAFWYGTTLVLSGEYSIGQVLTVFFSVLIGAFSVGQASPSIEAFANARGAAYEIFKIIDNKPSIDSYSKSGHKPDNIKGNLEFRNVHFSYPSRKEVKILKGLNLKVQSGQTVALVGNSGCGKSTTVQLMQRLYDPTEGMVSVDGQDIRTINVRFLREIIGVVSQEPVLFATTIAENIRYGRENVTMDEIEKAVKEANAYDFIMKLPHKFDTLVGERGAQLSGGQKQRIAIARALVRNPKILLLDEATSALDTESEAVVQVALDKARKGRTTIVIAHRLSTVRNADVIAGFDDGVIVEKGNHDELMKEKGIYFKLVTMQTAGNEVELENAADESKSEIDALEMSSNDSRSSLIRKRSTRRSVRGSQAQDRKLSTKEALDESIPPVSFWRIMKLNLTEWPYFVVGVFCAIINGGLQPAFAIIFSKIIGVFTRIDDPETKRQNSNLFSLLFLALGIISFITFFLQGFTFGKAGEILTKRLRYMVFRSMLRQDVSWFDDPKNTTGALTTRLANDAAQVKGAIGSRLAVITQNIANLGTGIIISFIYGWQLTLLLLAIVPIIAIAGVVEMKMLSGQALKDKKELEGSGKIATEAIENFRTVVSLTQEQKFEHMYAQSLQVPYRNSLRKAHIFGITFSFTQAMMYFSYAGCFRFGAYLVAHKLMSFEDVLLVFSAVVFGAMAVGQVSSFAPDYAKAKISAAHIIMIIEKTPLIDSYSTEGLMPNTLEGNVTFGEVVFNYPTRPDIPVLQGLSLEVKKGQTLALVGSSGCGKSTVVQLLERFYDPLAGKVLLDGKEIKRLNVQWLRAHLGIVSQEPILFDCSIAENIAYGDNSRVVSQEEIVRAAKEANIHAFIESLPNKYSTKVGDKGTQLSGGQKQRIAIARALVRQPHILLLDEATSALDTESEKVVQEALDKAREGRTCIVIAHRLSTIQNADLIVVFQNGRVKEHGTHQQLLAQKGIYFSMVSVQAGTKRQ
T1 sequence (P00522 whole entry, the tested form may be a part): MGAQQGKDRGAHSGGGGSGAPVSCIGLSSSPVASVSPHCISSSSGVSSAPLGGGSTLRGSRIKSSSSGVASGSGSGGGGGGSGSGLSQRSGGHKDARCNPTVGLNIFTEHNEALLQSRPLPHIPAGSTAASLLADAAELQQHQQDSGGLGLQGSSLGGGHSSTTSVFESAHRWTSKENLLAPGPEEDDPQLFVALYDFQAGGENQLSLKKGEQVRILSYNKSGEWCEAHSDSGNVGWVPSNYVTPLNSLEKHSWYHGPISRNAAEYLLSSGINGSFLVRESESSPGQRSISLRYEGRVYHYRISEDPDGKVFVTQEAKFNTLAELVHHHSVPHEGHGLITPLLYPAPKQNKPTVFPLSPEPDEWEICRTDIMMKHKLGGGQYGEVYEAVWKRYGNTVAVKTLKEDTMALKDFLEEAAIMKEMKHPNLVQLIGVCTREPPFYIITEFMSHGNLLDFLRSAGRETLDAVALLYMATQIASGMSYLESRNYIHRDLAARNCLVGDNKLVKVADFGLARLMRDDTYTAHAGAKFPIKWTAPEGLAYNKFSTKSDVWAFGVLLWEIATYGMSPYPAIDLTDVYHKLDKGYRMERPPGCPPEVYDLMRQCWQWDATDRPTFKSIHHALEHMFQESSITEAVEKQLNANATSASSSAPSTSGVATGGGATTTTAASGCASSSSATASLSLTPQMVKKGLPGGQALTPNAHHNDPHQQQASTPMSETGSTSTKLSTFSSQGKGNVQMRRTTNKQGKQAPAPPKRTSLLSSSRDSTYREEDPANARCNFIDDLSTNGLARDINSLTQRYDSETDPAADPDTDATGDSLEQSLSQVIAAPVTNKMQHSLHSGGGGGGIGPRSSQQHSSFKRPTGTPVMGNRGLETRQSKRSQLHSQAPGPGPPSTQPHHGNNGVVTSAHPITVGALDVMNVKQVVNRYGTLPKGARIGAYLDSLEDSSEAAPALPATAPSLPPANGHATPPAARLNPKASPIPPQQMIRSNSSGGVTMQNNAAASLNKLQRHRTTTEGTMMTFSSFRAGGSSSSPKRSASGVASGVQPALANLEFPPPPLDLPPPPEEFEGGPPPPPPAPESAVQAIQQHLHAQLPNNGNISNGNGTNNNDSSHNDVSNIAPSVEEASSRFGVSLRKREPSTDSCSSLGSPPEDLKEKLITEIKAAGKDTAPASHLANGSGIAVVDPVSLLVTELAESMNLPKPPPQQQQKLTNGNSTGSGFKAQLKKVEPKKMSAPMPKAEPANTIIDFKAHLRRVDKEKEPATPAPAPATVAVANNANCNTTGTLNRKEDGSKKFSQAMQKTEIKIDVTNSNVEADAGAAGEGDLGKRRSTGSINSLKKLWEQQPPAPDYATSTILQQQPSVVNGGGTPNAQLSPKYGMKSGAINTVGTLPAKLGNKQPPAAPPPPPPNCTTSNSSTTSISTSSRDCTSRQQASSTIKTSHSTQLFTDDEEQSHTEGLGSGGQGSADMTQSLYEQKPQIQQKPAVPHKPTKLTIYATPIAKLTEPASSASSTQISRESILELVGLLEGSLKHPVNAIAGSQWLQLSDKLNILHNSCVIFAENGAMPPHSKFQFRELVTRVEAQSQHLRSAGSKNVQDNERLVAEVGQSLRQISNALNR

SMILES	tolerance in children [1]	substrate for the efflux transporter P-glycoprotein pump [2]	Dscam-induced axon terminal overgrowth [3]	axon terminal length in dFMRP mutants [4]	concentration in a human [5]	Abl activity (phospho-Y412-Abl) [6]	influx dependent on OCT1 [7]	bioavailability [8]
Cc1nc(Nc2ncc(C(=O)Nc3c(C)cccc3Cl)s2)cc(N2CCN(CCO)CC2)n1 [Dasatinib]	good tolerance	not a substrate						
Cc1ccc(NC(=O)c2ccc(CN3CCN(C)CC3)cc2)cc1Nc1nccc(-c2cccnc2)n1 [imatinib]		substrate						
Cc1cn(-c2cc(NC(=O)c3ccc(C)c(Nc4nccc(-c5cccnc5)n4)c3)cc(C(F)(F)F)c2)cn1 [nilotinib, 4-methyl-N-[3-(4-methyl-1-H-imidazol-1-yl)-5-(trifluoromethyl)phenyl]-3-[(4-pyridin-3-ylpyrimidin-2-yl)amino]benzamide]		not a substrate	nearly completely suppressed; also recorded: suppresses axon terminal overgrowth	103 % of control	approximately 1.3 μmol/liter	completely suppressed	is not	approximately 30%
